Activity calls are given as the source filed them. The calls are words filed in the database; no cut-off is given here.
Tests used:
[1] = Neurotoxicity against retinoic acid/TPA differentiated human SH-SY5Y cells assessed as reduction in cell viability at 100 uM measured after 48 hrs by MTT assay relative to control; format: toxicity, cell-based
[2] = Neurotoxicity against non-differentiated human SH-SY5Y cells assessed as reduction in cell viability at 100 uM measured after 24 hrs by MTT assay relative to control; format: toxicity, cell-based
SH-SY5Y [3] = assay: Neuroprotective activity in amyloid beta (25 to 35)-induced non-differentiated human SH-SY5Y cells assessed as reduction in protein aggregation at 100 uM incubated for 24 hrs by ThT fluorescence assay relative to control; format: functional; design: scale not given: the % may be the effect or the level left
SH-SY5Y [4] = assay: Neuroprotective activity against PQ-induced cytotoxicity in differentiated human SH-SY5Y cells at 100 uM incubated for 48 hrs by MTT reduction assay; format: functional; design: scale not given: the % may be the effect or the level left
SH-SY5Y [5] = assay: Neuroprotective activity against 6-OHDA-induced cytotoxicity in differentiated human SH-SY5Y cells at 100 uM incubated for 48 hrs by NR uptake assay; format: functional, cell-based
SH-SY5Y [6] = assay: Neuroprotective activity against 6-OHDA-induced cytotoxicity in differentiated human SH-SY5Y cells at 100 uM incubated for 48 hrs by MTT reduction assay relative to control; format: functional
SH-SY5Y [7] = assay: Neuroprotective activity against PQ-induced cytotoxicity in differentiated human SH-SY5Y cells assessed as NR uptake at 100 uM incubated for 48 hrs by NR uptake assay (reference value: 36.78 +/- 9.57%); format: functional
SH-SY5Y [8] = assay: Neuroprotective activity against 6-OHDA-induced cytotoxicity in differentiated human SH-SY5Y cells assessed as NR uptake at 100 uM incubated for 48 hrs by NR uptake assay (reference value: 61.31 +/- 12.93%); format: functional
SH-SY5Y [9] = assay: Neuroprotective activity against PQ-induced cytotoxicity in differentiated human SH-SY5Y cells assessed as viable cells at 100 uM incubated for 48 hrs by MTT reduction assay (reference value: 46.02 +/- 3.61%); format: functional; settings: read-out: Activity
SH-SY5Y [10] = assay: Neuroprotective activity against PQ-induced cytotoxicity in differentiated human SH-SY5Y cells at 100 uM incubated for 48 hrs by NR uptake assay; format: functional

Row | SMILES | Cell viability (% of control) [1] [%] | Activity [2] [%] | Activity (SH-SY5Y [3]) | Activity (SH-SY5Y [5]) | Activity (SH-SY5Y [6]) | also measured
1 | COC(=O)CC[C@H](NC(=O)[C@@H]1[C@H]2CC[C@H](C2)N1C(=O)CN)C(=O)NC12CC3CC(CC(C3)C1)C2.O=C(O)C(F)(F)F | 102.46 | 93.91 | 20% | inactive | inactive | Activity (SH-SY5Y [4]): 5%
2 | COC(=O)CC[C@H](NC(=O)[C@@H]1[C@H]2CC[C@H](C2)N1C(=O)CN)C(=O)N[C@@H]1CCc2ccccc21.O=C(O)C(F)(F)F | 98.48 | 96.04 | inactive | inactive | inactive | Activity (SH-SY5Y [7]): 40.76%; Activity (SH-SY5Y [4]): 4%
3 | NC12CC3CC(CC(C3)C1)C2 [AMANTADINE] | – | – | 17% | – | – | –
4 | COC(=O)CC[C@H](NC(=O)[C@@H]1[C@H]2CC[C@H](C2)N1C(=O)CN(C)C)C(=O)N[C@@H]1CCc2ccccc21 | 100.56 | – | – | inactive | inactive | –
5 | COC(=O)CC[C@H](NC(=O)[C@@H]1CCCN1C(=O)CN)C(=O)N[C@@H]1CCc2ccccc21 | – | – | Active | – | – | –
6 | COC(=O)[C@H](CCC(=O)NC12CC3CC(CC(C3)C1)C2)NC(=O)[C@@H]1[C@H]2CC[C@H](C2)N1C(=O)CNC(=O)OC(C)(C)C | – | 89.94 | – | – | – | –
7 | COC(=O)[C@H](CCC(=O)NC12CC3CC(C)(CC(C)(C3)C1)C2)NC(=O)[C@@H]1[C@H]2CC[C@H](C2)N1C(=O)CN.O=C(O)C(F)(F)F | – | 32.77 | – | – | – | –
8 | NCC(=O)N1CCC[C@H]1C(=O)N[C@@H](CCC(=O)O)C(=O)O | – | – | 12% | – | 12% | Activity (SH-SY5Y [7]): 36.33%; Activity (SH-SY5Y [8]): 25.32%; viability at 100 µM (SH-SY5Y [9]): 25.3%
9 | COC(=O)[C@H](CCC(=O)N[C@@H]1CCc2ccccc21)NC(=O)[C@@H]1CCCN1C(=O)CN | – | – | Active | – | – | –
10 | COC(=O)[C@H](CCC(=O)NC12CC3CC(CC(C3)C1)C2)NC(=O)[C@@H]1CCCN1C(=O)CN | – | – | inactive | – | – | –
11 | COC(=O)CC[C@H](NC(=O)[C@@H]1[C@H]2CC[C@H](C2)N1C(=O)CN(C)C)C(=O)NC12CC3CC(CC(C3)C1)C2 | – | 97.93 | 24% | – | – | –
12 | COC(=O)[C@H](CCC(=O)N[C@@H]1CCc2ccccc21)NC(=O)[C@@H]1[C@H]2CC[C@H](C2)N1C(=O)CNC(=O)OC(C)(C)C | 94.07 | 32.77 | – | inactive | inactive | –
13 | N[C@@H]1CCc2ccccc21 | – | – | – | – | – | Activity (SH-SY5Y [7]): 22.95%; viability at 100 µM (SH-SY5Y [9]): 23.6%
14 | COC(=O)CC[C@H](NC(=O)[C@@H]1[C@H]2CC[C@H](C2)N1C(=O)CNC(=O)OC(C)(C)C)C(=O)NC12CC3CC(CC(C3)C1)C2 | – | 90.79 | – | – | – | –
15 | COC(=O)[C@H](CCC(=O)NC12CC3CC(CC(C3)C1)C2)NC(=O)[C@@H]1[C@H]2CC[C@H](C2)N1C(=O)CN.O=C(O)C(F)(F)F | 96.82 | 89.15 | – | inactive | inactive | Activity (SH-SY5Y [7]): 40.94%
16 | COC(=O)CC[C@H](NC(=O)[C@@H]1[C@H]2CC[C@H](C2)N1C(=O)CNC(=O)OC(C)(C)C)C(=O)NC12CC3CC(C)(CC(C)(C3)C1)C2 | 98.1 | – | – | inactive | inactive | viability at 100 µM (SH-SY5Y [9]): 38.8%
17 | COC(=O)[C@H](CCC(=O)N[C@@H]1CCc2ccccc21)NC(=O)[C@@H]1[C@H]2CC[C@H](C2)N1C(=O)CN(C)C | 96.47 | 90.95 | inactive | inactive | inactive | Activity (SH-SY5Y [10]): <=15%; Activity (SH-SY5Y [4]): 12%
18 | COC(=O)[C@H](CCC(=O)NC12CC3CC(C)(CC(C)(C3)C1)C2)NC(=O)[C@@H]1[C@H]2CC[C@H](C2)N1C(=O)CN(C)C | 9.07 | 32.77 | – | – | – | –
19 | COC(=O)CC[C@H](NC(=O)[C@@H]1[C@H]2CC[C@H](C2)N1C(=O)CNC(=O)OC(C)(C)C)C(=O)N[C@@H]1CCc2ccccc21 | – | 86.49 | inactive | – | – | –

Source: ChEMBL document CHEMBL6134783, “Discovery of hybrid Glypromate conjugates with neuroprotective activity against paraquat-induced toxicity” (RSC Med Chem, 2024)
